Data set [1] deals with human ovarian carcinoma, Burkitt’s lymphoma, pancreatic carcinoma and T-cell leukemia cells. Nature of the data set: Anticancer activity, summary over four cancer cell lines. The settings on record: read-out: IC50 values, range over cell lines. It counts as cell-based. Here is the method:
Determination of viability of cells in the presence of prodrugs and controls A2780 and BL-2 cells The medium was removed, and the cells were washed two times with DPBS, trypsinated, and resuspended in RPMI 1640 medium (A2780) supplemented with 5% FBS (for 24 h and 48 h assay) or 10% FBS (for 96 h assay) , 1% L-glutamine, and 1% penicillin/streptomycin.
A2780 cells: This suspension was spread in the wells of a 96 -well microtiter plate (25000 cells for A2780 per well per 100 μL) and left standing at 37 °C in the chamber filled with CO2 (5%) for overnight. […] Afterward, the intensity of the absorbance at 590 nm was measured.
MTT is converted in live cells to blue dye with the absorbance maximum λ max at 590 nm.
The absorbance at 690 nm was taken as a baseline value. The baseline corrected absorbance at 590 nm (A(590 nm) − A(690 nm)) was applied to calculate the relative number of viable cells. […]
AsPC1 cells The cells (20.000/well) were seeded in a 12-well plate and incubated for 24 h. […] Viable cells were determined based on the morphological parameters by using flow cytometry (Table S4). […]
Jurkat cells The cells were counted in MUSE Cell Analyzer using MUSE® Count &Viability Assay Kit (Merck-Millipore, Billerica, MA, USA) and adjusted to a density of 1.0 x 10^5/ml in RPMI 1640 medium (with 10% FCS and 1% glutamine). […]

Data set [2] is described as follows: Solubility in RPMI 1640 medium, precipitation seen by bright field optical microscopy. The settings on record: DMSO 1%. Here is the method:
The latter medium was selected, since we used it for the cellular assays. […] Then we monitored the formation of (not detectable in the previous experiment) aggregated species in prodrug solutions that appeared transparent (concentrations < 50 µM) by using dynamic light scattering. […]
Solubility of drugs in aqueous buffers
Observing prodrug precipitation by using bright field optical microscopy […]
glutamine (1 %), and penicillin/streptomycin (1 %) was filled into 96-well microtiter plates (100 µL for each well) and compounds in DMSO stock solution (1 µL) were added. Each well was monitored by using bright field optical microscopy both immediately after […]

Data set [3] relates to chronic lymphocytic leukemia (CLL) cells. Nature of the data set: Viability of primary CLL cells (CellTiter Glo). It counts as cell-based, human. The following applies: 48 h. The text has this:
Determination of viability of primary cancer (CLL) and normal (MNC) cells in the […]
Clinical samples from chronic lymphocytic leukemia (CLL) patients (N=6, CLL cells) and healthy donors (N=6; peripheral blood mononuclear cells, MNCs) were collected at the University Hospital Heidelberg, Germany. Informed consent was obtained in accordance with the Declaration of Helsinki. Sample collection and analysis was approved by the ethics committee of the University of Heidelberg (S-254/2016). Blood was separated by a Ficoll gradient (GE Healthcarey), and cells were cryopreserved. Drug sensitivity screening was performed in 384-well format (Greiner Bio One) with 10 different prodrug […]
4x10^4 cells per well. Cells were cultured in RPMI-1640 (Invitrogen) supplemented with penicillin/streptomycin (Invitrogen), L-glutamine (Invitrogen) and 10% pooled and heat inactivated AB-type human serum (Sigma-Aldrich). Cell viability was assessed by quantification of ATP (CellTiter Glo®, Promega) 48 hours after drug application.
Luminescence was measured on a Tecan Infinite F200 Microplate Reader. Viability was calculated as % of solvent (DMSO) treated control. Representative plots of cell viability

On to `CC1(C)OB(c2ccc(COC(=O)N(Cc3cn(Cc4ccc(Cn5cc(Cc6ccccc6)nn5)cc4)nn3)[c-]3cccc3)cc2)OC1(C)C.[Fe+2].c1cc[cH-]c1` [2c], for which the IC50 is 5 to 7.1 µM in data set [1] and 6 ± 2 µM in data set [3] (primary CLL cells from six patients). In data set [2] (48 h incubation in RPMI 1640, FBS 5%, first signs of precipitation), the Solubility is 30 µM. For the same compound, in data set [2] (immediately after dilution in RPMI 1640, FBS 5%), the “first signs of precipitation” value was determined as 30 µM. Further, the “cancer cell specificity, primary CLL cells vs MNCs” value in data set [3] (viability of CLL vs MNC, for 2c at 3.3 and 10 µM) is “significantly more toxic in the cancer cells than in the normal cells”.

The record behind these values is paper PMC8750417, “Intracellular Amplifiers of Reactive Oxygen Species Affecting Mitochondria as Radiosensitizers” (Cancers, 2021).
